We go through 22 molecules from the SangsterLogP compilation.

The term logP denotes a log measure of how a compound divides between an organic and an aqueous phase. Low readings indicate a more hydrophilic compound, high ones a more lipophilic compound. `COc1ccc2oc3cc(-c4nnn[nH]4)ccc3c(=O)c2c1`: the lipophilicity (logP) worked out at 3.15.

`CCSc1ccc2oc3cc(C(=O)O)ccc3c(=O)c2c1`: the logP worked out at 4.36.

Molecule `O=C(O)c1ccc2c(=O)c3cc([N+](=O)[O-])ccc3oc2c1` showed a logP of 3.12.

`CCOc1ccc2oc3cc(-c4nn[nH]n4)ccc3c(=O)c2c1` displayed a logP of 3.67.

In turn, `O=c1c2ccc(-c3nnn[nH]3)cc2oc2ccc([N+](=O)[O-])cc12` came in with a logP of 2.83.

In the case of `CCOc1ccc2oc3cc(C(=O)O)ccc3c(=O)c2c1`, the logP stood at 3.99.

The molecule `Nc1ccc2oc3cc(-c4nnn[nH]4)ccc3c(=O)c2c1` displayed a logP of 2.18.

Take `O=C(O)c1ccc2c(=O)c3cc(OCCO)ccc3oc2c1`: the logP is 2.46.

In turn, `CC(O)COc1ccc2oc3cc(C(=O)O)ccc3c(=O)c2c1` (configuration not stated) registered a logP of 2.87.

Turning to `Nc1ccc2oc3cc(C(=O)O)ccc3c(=O)c2c1`, the logP came to 2.3.

For `CCCCOc1ccc2oc3cc(-c4nnn[nH]4)ccc3c(=O)c2c1`, the logP turned out to be 4.69.

Turning to `COCc1ccc2oc3cc(C(=O)O)ccc3c(=O)c2c1`, the logP was 3.12.

Turning to `N#Cc1ccc2oc3ccc(-c4nnn[nH]4)cc3c(=O)c2c1`, the logP turned out to be 2.52.

Molecule `CCCC(=O)OCCOc1ccc2oc3cc(-c4nnn[nH]4)ccc3c(=O)c2c1` came in with a log partition coefficient (logP) of 3.73.

`CCCC(=O)OCCOc1ccc2oc3cc(C(=O)O)ccc3c(=O)c2c1` came in with a logP of 4.

`O=c1c2ccccc2oc2cc(-c3nn[nH]n3)ccc12` displayed a logP of 2.86.

On to `O=c1c2ccc(-c3nnn[nH]3)cc2oc2ccc(OCCO)cc12`, for which the lipophilicity (logP) was found to be 2.31.

Molecule `COc1ccc2oc3cc(C(=O)O)ccc3c(=O)c2c1` gave a logP of 3.37.

`CCSc1ccc2oc3cc(-c4nnn[nH]4)ccc3c(=O)c2c1` showed a lipophilicity (logP) of 4.06.

Consider `CCCCOc1ccc2oc3cc(C(=O)O)ccc3c(=O)c2c1`, for which the logP is 5.

For `O=C(O)c1ccc2c(=O)c3cc(OCCOCCO)ccc3oc2c1`, the logP is 2.62.

`CCCc1ccc2oc3cc(C(=O)O)ccc3c(=O)c2c1` had a logP of 4.59.
